Source: patent US20100144008A1, “TREATMENT OF FABRY DISEASE” (ACADEMISCH ZIEKENHUIS BIJ DE UNIVERSITEIT VAN AMSTERDAM, priority 2006, published 2010)
Where two headings read alike, the source gives them in different places.

What was measured:
alpha-galactosidase B = biological target: T1, alpha-galactosidase B (Homo sapiens, UniProt P17050); experiment: Inhibition of alpha-galactosidase B by lyso-CTH; assay type: biochemical
T1 sequence (P17050 18-411): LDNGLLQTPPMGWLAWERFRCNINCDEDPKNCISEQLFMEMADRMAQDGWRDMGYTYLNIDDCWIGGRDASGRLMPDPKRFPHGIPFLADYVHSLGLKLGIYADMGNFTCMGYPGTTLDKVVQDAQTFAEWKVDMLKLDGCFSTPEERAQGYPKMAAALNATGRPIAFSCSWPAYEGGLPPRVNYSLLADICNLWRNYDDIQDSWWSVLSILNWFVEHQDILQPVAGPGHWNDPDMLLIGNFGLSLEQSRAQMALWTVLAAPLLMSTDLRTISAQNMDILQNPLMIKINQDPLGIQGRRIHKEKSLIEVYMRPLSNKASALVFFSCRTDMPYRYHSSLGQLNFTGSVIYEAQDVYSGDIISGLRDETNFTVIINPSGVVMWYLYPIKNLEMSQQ

SMC-41 cell line = experiment: Toxic effect in vitro: 3H thymidine incorporation and proliferation in SMC-41 cell line; assay type: cell-based; settings: lyso-CTH 0.065-0.65 μM (as found in plasma of Fabry patients); for proliferation of SMC-41 (smooth muscle cell proliferation): in vitro
Experimental: The toxic effect of lyso-CTH was determined in vitro in SMC-41 cell line. ^3H thymidine incorporation (per 24 h) was determined as a function of lyso-CTH concentration.

alpha-galactosidase A = biological target: T2, alpha-galactosidase A (Homo sapiens, UniProt P06280); experiment: Inhibition of alpha-galactosidase A by lyso-CTH; assay type: biochemical
T2 sequence (P06280 32-429): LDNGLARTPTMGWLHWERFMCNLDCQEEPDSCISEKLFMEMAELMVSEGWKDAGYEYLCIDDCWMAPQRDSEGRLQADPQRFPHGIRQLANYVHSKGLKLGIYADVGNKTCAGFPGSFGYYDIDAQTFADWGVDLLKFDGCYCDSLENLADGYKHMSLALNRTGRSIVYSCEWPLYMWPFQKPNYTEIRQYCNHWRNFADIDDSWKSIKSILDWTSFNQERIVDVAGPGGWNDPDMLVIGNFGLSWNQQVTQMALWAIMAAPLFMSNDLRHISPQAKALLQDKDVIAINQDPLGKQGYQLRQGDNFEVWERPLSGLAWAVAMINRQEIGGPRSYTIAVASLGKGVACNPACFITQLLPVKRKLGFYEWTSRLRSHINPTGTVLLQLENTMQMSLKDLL

[1] = Partitioning of lyso-CTH in Bligh and Dyer and butanol/water extraction; assay type: physicochemical
Experimental: An optimal extraction procedure for lyso-CTH from plasma samples was established. A double extraction was carried out, first a Bligh and Dyer extraction followed by butanol extraction.

lyso-CTH = experiment: Plasma lyso-CTH concentration in mouse model of Fabry disease after enzyme; assay type: in vivo; settings: compared to underivatised agalsidase beta
[2] = Plasma circulation of alphaGAL replacement enzyme in mouse model of Fabry disease; assay type: in vivo; settings: compared to underivatised agalsidase beta
Experimental: Via standard methods agalsidase beta (Fabrazyme®, Genzyme) is pegylated.
In a mouse model of Fabry disease at different time-points plasma samples are analysed for the presence of agalsidase beta to give reference values and at the same different time-points plasma samples are analysed for the presence of pegylated agalsidase beta.

Inhibition of alpha-galactosidase B (alpha-galactosidase B) | Inhibition of alpha-galactosidase B (alpha-galactosidase B; listed as Lyso-CTH) | Inhibition of alpha-galactosidase A (alpha-galactosidase A) | Inhibition of alpha-galactosidase A (alpha-galactosidase A; listed as Lyso-CTH) | Partitioning of lyso-CTH (% of total), lower phase ([1]; Bligh and Dyer extraction) | Partitioning of lyso-CTH (% of total), upper phase ([1]; Bligh and Dyer extraction) | Partitioning of lyso-CTH (% of total), lower phase ([1]; butanol/water extraction) | Partitioning of lyso-CTH (% of total), upper phase ([1]; butanol/water extraction) | Compound | 3H thymidine incorporation (per 24 h) (SMC-41 cell line; SMC-41 cell line) | proliferation of SMC-41 (smooth muscle cell proliferation) (SMC-41 cell line) | proliferation of SMC-41 (smooth muscle cell proliferation) (SMC-41 cell line; listed as Lyso-CTH) | concentration of lyso-CTH in the plasma samples (lyso-CTH) | plasma circulation time [2]
inhibits | potent inhibitor | inhibits | potent inhibitor | 10 % of total | 90 % of total | 2 % of total | 99 % of total | CCCCCCCCCCCCC/C=C/[C@@H](O)[C@@H](N)CO[C@@H]1O[C@H](CO)[C@@H](O[C@@H]2O[C@H](CO)[C@H](O[C@H]3O[C@H](CO)[C@H](O)[C@H](O)[C@H]3O)[C@H](O)[C@H]2O)[C@H](O)[C@H]1O [lyso-CTH, lyso-ceramide trihexosamide] | increased isotope incorporation | increased proliferation | promote in vitro smooth muscle cell proliferation |  | 
 |  |  |  |  |  |  |  | pegylated agalsidase beta: agalsidase beta (Fabrazyme, Genzyme) pegylated via standard methods |  |  |  | significantly lower | increase in plasma circulation time
